Measurements as given in ChEMBL document CHEMBL3132743, “Synthesis of hetero annulated carbazoles: exploration of in vitro cytotoxicity and molecular docking studies” (Medchemcomm, 2013).

Key:
[1] = test system: MCF7; experiment: Cytotoxicity against human MCF7 cells after 48 hrs by MTT assay; format: functional, cell-based; conditions: MCF7, 48 h
[2] = test system: HeLa; experiment: Cytotoxicity against human HeLa cells after 48 hrs by MTT assay; format: functional, cell-based
[3] = test system: HeLa; experiment: Ratio of ellipticine IC50 to compound IC50 for human HeLa cells; format: functional

## Cc1c2ccncc2c(C)c2c1[nH]c1ccccc12 [ELLIPTECINE]
[1]
  IC50: 16.7 µM
[2]
  IC50: 9.81 µM

## Cc1ccc2[nH]c3c(ccc4c(-c5cc6c(ccc7ccccc76)nc5Cl)nc(N)nc43)c2c1
[1]
  IC50: 39.4 µM
[2]
  IC50: 14.8 µM

## Cc1ccc2[nH]c3c(c2c1)CCc1c-3noc1-c1cc2c(ccc3ccccc32)nc1Cl
[1]
  IC50: 67.9 µM
[2]
  IC50: 26.1 µM

## O=C1/C(=C/c2cc3c(ccc4ccccc43)nc2Cl)CCc2c1[nH]c1ccc(Cl)cc21
[1]
  IC50: 75.5 µM
[2]
  IC50: 32.5 µM

## Nc1nc(-c2cc3c(ccc4ccccc43)nc2Cl)c2ccc3c4cc(Cl)ccc4[nH]c3c2n1
[1]
  IC50: 32.6 µM
[2]
  IC50: 12.4 µM

## CCOc1nc2c(c(-c3cc4c(ccc5ccccc54)nc3Cl)c1C#N)CCc1c-2[nH]c2ccc(C)cc12
[1]
  IC50: 37.4 µM
[2]
  IC50: 9.63 µM

## O=C1/C(=C/c2cc3c(ccc4ccccc43)nc2Cl)CCc2c1[nH]c1ccccc21
[1]
  IC50: > 100 µM
[2]
  IC50: 42.3 µM

## Nc1nc(-c2cc3c(ccc4ccccc43)nc2Cl)c2ccc3c4ccccc4[nH]c3c2n1
[1]
  IC50: 42.9 µM
[2]
  IC50: 18.6 µM

## Clc1nc2ccc3ccccc3c2cc1-c1onc2c1CCc1c-2[nH]c2ccccc12
[1]
  IC50: 70.5 µM
[2]
  IC50: 27.5 µM

## CCOc1nc2c(c(-c3cc4c(ccc5ccccc54)nc3Cl)c1C#N)CCc1c-2[nH]c2ccc(Cl)cc12
[3]
  Ratio IC50: 1.21
[1]
  IC50: 34.5 µM
[2]
  IC50: 8.11 µM

## Cc1ccc2[nH]c3c(c2c1)CC/C(=C\c1cc2c(ccc4ccccc42)nc1Cl)C3=O
[1]
  IC50: > 100 µM
[2]
  IC50: 35.8 µM

## Clc1ccc2[nH]c3c(c2c1)CCc1c-3noc1-c1cc2c(ccc3ccccc32)nc1Cl
[1]
  IC50: 55.1 µM
[2]
  IC50: 22.3 µM

## CCOc1nc2c(c(-c3cc4c(ccc5ccccc54)nc3Cl)c1C#N)CCc1c-2[nH]c2ccccc12
[1]
  IC50: 46.6 µM
[2]
  IC50: 12.3 µM
